Measured values published in patent publication US8063090B2, “Mineralocorticoid receptor modulators” (Merck Sharp & Dohme Corp., priority 2007, dated 2011).

Target: T1, recombinant rhesus mineralocorticoid receptor (Macaca mulatta, UniProt A0A5F8ATS5)
T1 construct: made in house; host or cells: insect cells infected with recombinant baculovirus; clarified cell lysate used
T1 sequence (A0A5F8ATS5 1-984): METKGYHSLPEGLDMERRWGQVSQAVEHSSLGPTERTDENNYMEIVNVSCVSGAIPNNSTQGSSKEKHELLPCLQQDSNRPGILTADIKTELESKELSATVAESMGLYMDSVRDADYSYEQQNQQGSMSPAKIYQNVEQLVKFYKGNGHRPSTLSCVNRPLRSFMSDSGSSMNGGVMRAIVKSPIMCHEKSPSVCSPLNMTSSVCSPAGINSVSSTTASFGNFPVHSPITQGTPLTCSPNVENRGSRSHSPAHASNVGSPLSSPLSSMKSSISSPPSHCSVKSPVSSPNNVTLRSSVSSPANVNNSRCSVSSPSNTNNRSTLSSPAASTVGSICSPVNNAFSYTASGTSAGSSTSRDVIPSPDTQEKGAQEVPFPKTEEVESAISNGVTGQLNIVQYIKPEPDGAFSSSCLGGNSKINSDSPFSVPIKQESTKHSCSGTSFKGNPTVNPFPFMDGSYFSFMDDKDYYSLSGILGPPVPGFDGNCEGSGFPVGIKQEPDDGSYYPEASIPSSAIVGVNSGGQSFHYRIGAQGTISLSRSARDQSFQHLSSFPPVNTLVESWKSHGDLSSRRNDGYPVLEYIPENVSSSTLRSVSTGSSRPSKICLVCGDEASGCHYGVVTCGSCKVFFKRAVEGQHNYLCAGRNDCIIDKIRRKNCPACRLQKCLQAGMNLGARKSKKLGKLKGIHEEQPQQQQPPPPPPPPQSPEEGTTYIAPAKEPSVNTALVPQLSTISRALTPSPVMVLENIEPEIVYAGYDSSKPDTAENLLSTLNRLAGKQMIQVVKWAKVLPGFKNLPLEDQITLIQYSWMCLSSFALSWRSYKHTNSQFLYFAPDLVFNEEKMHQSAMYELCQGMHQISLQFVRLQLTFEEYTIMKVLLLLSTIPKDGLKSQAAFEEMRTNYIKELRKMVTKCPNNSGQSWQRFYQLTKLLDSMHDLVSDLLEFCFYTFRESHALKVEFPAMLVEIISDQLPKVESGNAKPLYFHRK
Assay: Mineralocorticoid receptor radioligand ([3H]-aldosterone) filter binding assay
Conditions: displacement of [3H]-aldosterone, insect cell lysate, 20° C., read-out: Mineralocorticoid receptor binding affinity Ki
Protocol: Measurement of Mineralocorticoid Receptor Binding Affinity
The binding affinity of compounds for the mineralocorticoid receptor was determined by measuring their ability to prevent binding of radiolabeled aldosterone to recombinant rhesus mineralocorticoid receptor in a traditional filter binding assay protocol.
Rhesus mineralocorticoid receptor cDNA was cloned from a cDNA library using and used to prepare a recombinant baculovirus encoding the rhesus mineralocorticoid receptor coding sequence by standard molecular biological and cell biological methods. […] Cells were collected and lysed. The lysates were clarified by centrifugation and stored at −80 C until use in the radioligand binding assay.
The assays were carried out in 20 mM Hepes, 10 mM Na2MoO4, 10 mM 2-mercaptoethanol, 157 mM sucrose, and 3.7 mM CHAPS. [^3H]-Aldosterone (1 mCi/ml, 70-100 Ci/mmol) was purchased from Perkin Elmer (NET419). Test compounds were dissolved in DMSO and diluted in DMSO to 50 times the desired final concentrations for 3-fold serial dilution dose response curves. A working stock solution of [^3H]-aldosterone was prepared by dilution of the commercial stock to 0.083 μM in assay buffer. The insect cell lysate containing rhesus mineralocorticoid receptor was thawed and diluted to 0.7 mg protein/mL. Assay were started by combining 20 μL of test compound solution, 920 μL of diluted insect cell lysate, and 60 μL of [^3H]-aldosterone working solution in 2-mL 96-well polypropylene square well plates (USA Scientific) at 20° C. The mixture was incubated for 3 hr with continuous agitation on a platform shaker. The mixture was then filtered through 96-well GF/B filter plates (Packard) that had been previously treated with a solution of polyethylenimine (Sigma, P-3143). The filter plate was washed 3 times with 0.5 mL of 50 mM Tris-HCl, pH 7.4 and then dried overnight at 37° C. in a vacuum oven. The bottom of the plate was sealed and 40 μL of Microscint-20 (Packard, 6013621) was added to each well before counting radioactivity with a Topcount plate reader. Non-specific radioligand binding was determined by adding non-radiolabeled aldosterone (0.5 mM in DMSO) to the assay mixture to a final concentration of 10 μM in place of test compound. IC50 and Ki values were determined using a four parameter logistic fit using a customized assay data analyzer software package.

Ki [nM]	SMILES
2860	CC(c1ccccc1)n1ccnc1C(c1ccccc1)c1ccccc1 (racemic) [Compound 1-5, 2-(diphenylmethyl)-1-(1-phenylethyl)-1H-imidazole]
2600	CC(c1cccc(I)c1)n1ccnc1C(c1ccccc1)c1ccccc1 (stereo not shown) [Compound 1-6, 2-(diphenylmethyl)-1-[1-(3-iodophenyl)ethyl]-1H-imidazole]
2650	COc1ccc(Cn2ccnc2C(c2ccccc2)c2ccccc2)cc1 [Compound 1-7, 2-(diphenylmethyl)-1-(4-methoxybenzyl)-1H-imidazole]
410	FC(F)(F)c1cccc(Cn2ccnc2C(c2ccccc2)c2ccccc2)c1 [Compound 1-8, 2-(diphenylmethyl)-1-[3-(trifluoromethyl)benzyl]-1H-imidazole]
1090	CC(c1cc(C(F)(F)F)cc(C(F)(F)F)c1)n1ccnc1C(c1ccccc1)c1ccccc1 (stereo not shown) [Compound 1-10, 1-{1-[3,5-bis(trifluoromethyl)phenyl]ethyl}-2-(diphenylmethyl)-1H-imidazole]
1350	FC(F)(F)c1cc(Cn2ccnc2C(c2ccccc2)c2ccccc2)cc(C(F)(F)F)c1 [Compound 1-11, 1-[3,5-bis(trifluoromethyl)benzyl]-2-(diphenylmethyl)-1H-imidazole]
287	Ic1cccc(Cn2ccnc2C(c2ccccc2)c2ccccc2)c1 [Compound 1-12, 2-(diphenylmethyl)-1-(3-iodobenzyl)-1H-imidazole]
134	Cc1cccc(Cn2ccnc2C(c2ccccc2)c2ccccc2)c1 [Compound 1-13, 2-(diphenylmethyl)-1-(3-methylbenzyl)-1H-imidazole]
587	O=[N+]([O-])c1cccc(Cn2ccnc2C(c2ccccc2)c2ccccc2)c1 [Compound 1-14, 2-(diphenylmethyl)-1-(3-nitrobenzyl)-1H-imidazole]
633	Nc1cccc(Cn2ccnc2C(c2ccccc2)c2ccccc2)c1 [Compound 1-15, 3-{[2-(diphenylmethyl)-1H-imidazol-1-yl]methyl}aniline]
298	CC(c1cc(Cl)cc(Cl)c1)n1ccnc1C(c1ccccc1)c1ccccc1 (stereo not shown) [Compound 1-16, 1-[1-(3,5-dichlorophenyl)ethyl]-2-(diphenylmethyl)-1H-imidazole]
499	COc1ccc(Br)cc1Cn1ccnc1C(c1ccccc1)c1ccccc1 [Compound 1-17, 1-(5-bromo-2-methoxybenzyl)-2-(diphenylmethyl)-1H-imidazole]
1120	Clc1cc2c(cc1Cn1ccnc1C(c1ccccc1)c1ccccc1)OCO2 [Compound 1-18, 1-[(6-chloro-1,3-benzodioxol-5-yl)methyl]-2-(diphenylmethyl)-1H-imidazole]
302	COc1cc(OC)cc(C(=O)Nc2cccc(Cn3ccnc3C(c3ccccc3)c3ccccc3)c2)c1 [Compound 1-19, N-(3-{[2-(diphenylmethyl)-1H-imidazol-1-yl]methyl}phenyl)-3,5-dimethoxybenzamide]
162	O=C(Nc1cccc(Cn2ccnc2C(c2ccccc2)c2ccccc2)c1)c1cc(Cl)cc(Cl)c1 [Compound 1-20, 3,5-dichloro-N-(3-{[2-(diphenylmethyl)-1H-imidazol-1-yl]methyl}phenyl)benzamide]
964	c1ccc(Cn2c(C(c3ccccc3)c3ccccc3)nc3ccccc32)cc1 [Compound 2-3, 1-benzyl-2-(diphenylmethyl)-1H-benzimidazole]
2090	CC(c1ccccc1)n1c(C(c2ccccc2)c2ccccc2)nc2ccccc21 (stereo not shown) [Compound 2-4, 2-(diphenylmethyl)-1-(1-phenylethyl)-1H-benzimidazole]

System: not given
Assay: not given
Conditions: in combination with standard CHF therapy, patients suffering from advanced CHF; cited from earlier work

SMILES	reduced cardiac related mortality [%]	reduced frequency of hospitalization [%]
CC(=O)S[C@@H]1CC2=CC(=O)CC[C@]2(C)[C@H]2CC[C@@]3(C)[C@@H](CC[C@@]34CCC(=O)O4)[C@H]12 [spironolactone]	30	33
